Experimental findings from ChEMBL document CHEMBL4334508, “Oleanolic Acid Derivatives as Potential Inhibitors of HIV-1 Protease” (J Nat Prod, 2019) are described below.

In the experiment the target is Protease (Human immunodeficiency virus 1, UniProt Q9YQ12). The experiment can be described thus: Inhibition of HIV1 protease expressed in Escherichia coli using Abz-Ala-Arg-Val-Nle-Tyr(NO2)-Glu-Ala-Nle-NH2 peptide as substrate by FRET assay.
Chain of Protease (Q9YQ12 whole entry): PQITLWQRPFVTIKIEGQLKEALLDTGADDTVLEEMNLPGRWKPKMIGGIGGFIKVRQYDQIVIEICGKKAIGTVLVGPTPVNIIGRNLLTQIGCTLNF
Broadly, the IC50 is the midpoint of a concentration-inhibition curve. Read a high IC50 as weaker potency in that assay. Molecule `CC(C)(CC(=O)O)CC(=O)O[C@H]1CC[C@]2(C)[C@H]3CC=C4[C@@H]5CC(C)(C)CC[C@]5(C(=O)NCCCCCCCCCCC(=O)O)CC[C@@]4(C)[C@]3(C)CC[C@H]2C1(C)C` came in with an IC50 of over 50 µM.
Regarding `CCCC(=O)O[C@H]1CC[C@]2(C)[C@H]3CC=C4[C@@H]5CC(C)(C)CC[C@]5(C(=O)NCCCC(=O)N[C@@H](C)C(=O)O)CC[C@@]4(C)[C@]3(C)CC[C@H]2C1(C)C`, the IC50 is over 50 µM.
On to `CCCCCC(=O)O[C@H]1CC[C@]2(C)[C@H]3CC=C4[C@@H]5CC(C)(C)CC[C@]5(C(=O)NCCCCCCCCCCC(=O)N[C@@H](C)C(=O)O)CC[C@@]4(C)[C@]3(C)CC[C@H]2C1(C)C`, for which the IC50 was over 50 µM.
On to `CCCCCCCCCCCC(=O)O[C@H]1CC[C@]2(C)[C@H]3CC=C4[C@@H]5CC(C)(C)CC[C@]5(C(=O)NCCCCCC(=O)NCC(=O)O)CC[C@@]4(C)[C@]3(C)CC[C@H]2C1(C)C`, for which the IC50 is over 50 µM.
Next, `CC(C)[C@H](NC(=O)CCCCCCCCCCNC(=O)[C@]12CCC(C)(C)C[C@H]1C1=CC[C@@H]3[C@@]4(C)CC[C@H](OC(=O)CCCC(=O)O)C(C)(C)[C@@H]4CC[C@@]3(C)[C@]1(C)CC2)C(=O)O`: over 50 µM.
Molecule `CC1(C)CC[C@]2(C(=O)NCCCC(=O)NCC(=O)O)CC[C@]3(C)C(=CC[C@@H]4[C@@]5(C)CC[C@H](OC(=O)CCCC(=O)O)C(C)(C)[C@@H]5CC[C@]43C)[C@@H]2C1` returned an IC50 of over 50 µM.
The molecule `CCCC(=O)O[C@H]1CC[C@]2(C)[C@H]3CC=C4[C@@H]5CC(C)(C)CC[C@]5(C(=O)NCCCCCCCCCCC(=O)NCC(=O)O)CC[C@@]4(C)[C@]3(C)CC[C@H]2C1(C)C` registered an IC50 of over 50 µM.
`CC(C)(CC(=O)O)CC(=O)O[C@H]1CC[C@]2(C)[C@H]3CC=C4[C@@H]5CC(C)(C)CC[C@]5(C(=O)NCCCCCCCCCCC(=O)NCC(=O)O)CC[C@@]4(C)[C@]3(C)CC[C@H]2C1(C)C` returned an IC50 of over 50 µM.
Consider `CCCCCCCCCCCC(=O)O[C@H]1CC[C@]2(C)[C@H]3CC=C4[C@@H]5CC(C)(C)CC[C@]5(C(=O)NCCCCCC(=O)O)CC[C@@]4(C)[C@]3(C)CC[C@H]2C1(C)C`, for which the IC50 is over 50 µM.
With `CCCCCC(=O)O[C@H]1CC[C@]2(C)[C@H]3CC=C4[C@@H]5CC(C)(C)CC[C@]5(C(=O)NCCCCCC(=O)N[C@@H](C)C(=O)O)CC[C@@]4(C)[C@]3(C)CC[C@H]2C1(C)C`, the IC50 is over 50 µM.
